Experiment [1] addresses T1, N-terminally GST-tagged mTOR (Homo sapiens, UniProt P42345).
T1 construct: truncated version: amino acids 1360-2549; purchased Life Technologies PR8683B
The experiment in a line: In vitro mTOR binding assay (LanthaScreen TR-FRET). On the technique in general: In TR-FRET formats the signal depends on donor and acceptor labels being close together.
Experimental: A 10-point 4-fold serial dilution (highest concentration at 10 μmol/L and lowest concentration at 40 μmol/L) of each compound was tested for mTOR binding in duplicate in a 384-well plate. […] After 30 min incubation at RT, time-resolved FRET was measured with a Synergy 4 multi-mode microplate reader (Biotek Instruments) using the following settings: 100 microsecs delay before data collection, 200 microsecs time for data collection, 10 measurements per data point.
IC50 values of each compound were determined by plotting the emission ratio versus the compound concentrations (in logarithmic scale) and then by fitting a sigmoidal dose-response curve with variable slope to the data using GraphPad™ Prism.

Another experiment relates to pPKB S473 in A2058 cells. The experiment is described as follows: In-cell Western blot, pPKB S473. It is filed as cell-based. The note with it: Homo sapiens, 1 hour treatment.
Experiment [2] relates to pS6 S235/S236 in A2058 cells. The experiment is described as follows: In-cell Western blot, pS6 S235/S236. In kind it is cell-based. The conditions noted are these: Homo sapiens, 1 hour treatment.
Experimental: (§1) Cells are fixed with 4% paraformaldehyde for 30 minutes at room temperature, washed 2 times with 1% BSA in PBS, permeabilized with 0.1% Triton X-100 in PBS/1% BSA for 30 minutes at room temperature and blocked with 5% goat serum in PBS/1% BSA/0.1% Triton X-100 for 30 minutes at room temperature. […] Cells are washed 3 times 5 minutes with PBS/1% BSA/0.1% triton and plate scanned with the Odyssey Infrared Scanning system using both 700 and 800 nm channels. […] To correct for background staining in the data analysis wells are treated only with secondary antibodies.
(§2) For data analysis the mean background signal from channel 700 nm and 800 nm are subtracted from each signal in channel 700 nm and 800 nm, respectively.
(§3) IC50 values of each compound are determined by plotting the normalized pPBK S473 and pS6 S235/S236 signals, respectively, versus the compound concentrations (in logarithmic scale) and then by fitting a sigmoidal dose-response curve with variable slope to the data using GraphPad™ Prism.
[3] abbreviates: LanthaScreen kinase binding, Tracer 314, read-out: mTOR IC50 (binding).

Here are results for 30 compounds from patent US10993947B2, “Treatment of skin lesions” (PIQUR THERAPEUTICS AG, priority 2016, dated 2021).

Like-named read-outs stand apart in the source and are kept apart here.

The term IC50 denotes the concentration needed to halve the response being measured.

T1 sequence (P42345 1360-2549): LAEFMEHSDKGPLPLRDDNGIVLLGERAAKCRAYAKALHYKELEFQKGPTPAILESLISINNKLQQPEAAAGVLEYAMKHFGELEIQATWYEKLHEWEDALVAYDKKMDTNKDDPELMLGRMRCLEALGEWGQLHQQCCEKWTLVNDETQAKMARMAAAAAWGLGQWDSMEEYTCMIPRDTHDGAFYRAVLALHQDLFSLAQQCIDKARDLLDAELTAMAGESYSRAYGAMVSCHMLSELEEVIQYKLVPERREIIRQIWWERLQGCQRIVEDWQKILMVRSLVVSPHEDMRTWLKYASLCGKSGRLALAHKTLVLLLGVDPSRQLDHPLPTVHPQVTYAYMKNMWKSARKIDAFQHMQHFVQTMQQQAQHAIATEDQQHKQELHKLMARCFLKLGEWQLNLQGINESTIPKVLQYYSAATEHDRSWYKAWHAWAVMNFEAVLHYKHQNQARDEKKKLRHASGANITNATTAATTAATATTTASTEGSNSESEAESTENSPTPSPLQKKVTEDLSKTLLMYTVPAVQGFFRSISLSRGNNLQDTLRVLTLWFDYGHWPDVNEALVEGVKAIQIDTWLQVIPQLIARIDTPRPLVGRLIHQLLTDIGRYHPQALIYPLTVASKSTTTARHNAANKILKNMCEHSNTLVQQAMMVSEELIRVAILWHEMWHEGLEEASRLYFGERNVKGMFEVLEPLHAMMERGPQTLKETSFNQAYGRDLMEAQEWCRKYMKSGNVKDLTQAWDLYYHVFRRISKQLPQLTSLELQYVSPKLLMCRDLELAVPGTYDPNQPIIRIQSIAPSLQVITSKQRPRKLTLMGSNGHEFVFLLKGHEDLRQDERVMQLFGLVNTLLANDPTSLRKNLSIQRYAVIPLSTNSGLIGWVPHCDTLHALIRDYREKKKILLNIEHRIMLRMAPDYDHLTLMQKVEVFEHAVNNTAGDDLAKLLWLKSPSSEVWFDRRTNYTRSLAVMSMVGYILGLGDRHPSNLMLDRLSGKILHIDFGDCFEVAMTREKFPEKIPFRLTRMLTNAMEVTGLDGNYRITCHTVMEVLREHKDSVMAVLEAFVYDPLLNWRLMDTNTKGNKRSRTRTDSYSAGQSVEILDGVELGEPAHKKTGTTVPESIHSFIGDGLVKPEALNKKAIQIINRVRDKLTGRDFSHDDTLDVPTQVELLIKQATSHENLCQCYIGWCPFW
Experimental for pPKB S473 in A2058 cells: as §1, §2, §3

On to `Nc1ncc(-c2nc(N3CCOCC3)nc(N3CCOCC3)n2)c(C(F)F)n1` [Compound 2], for which the IC50 in experiment [1] (setting [3]) is 59 nM.

Regarding `Nc1cc(C(F)F)c(-c2nc(N3CCOCC3)nc(N3C4CCC3COC4)n2)cn1` [Compound 4, 5-(4-(3-oxa-8-azabicyclo[3.2.1]octan-8-yl)-6-morpholino-1,3,5-triazin-2-yl)-4-(difluoromethyl)pyridin-2-amine], the IC50 in the experiment with pPKB S473 in A2058 cells (A2058, 1 h) was 178 nM; in experiment [2] (A2058, 1 h), 135 nM.

With `Nc1ncc(-c2nc(N3CCOCC3)nc(N3C4CCC3COC4)n2)c(C(F)F)n1` [Compound 5, 5-(4-(3-oxa-8-azabicyclo[3.2.1]octan-8-yl)-6-morpholino-1,3,5-triazin-2-yl)-4-(difluoromethyl)pyrimidin-2-amine], the IC50 with pPKB S473 in A2058 cells (A2058, 1 h) amounted to 85 nM; in experiment [2] (A2058, 1 h), 135 nM.

As to `C[C@H]1COCCN1c1nc(-c2cnc(N)nc2C(F)F)nc(N2CCOC[C@@H]2C)n1` [Compound 7], in experiment [1] (setting [3]), the IC50 was determined as 71 nM.

For the compound `C[C@H]1COCCN1c1nc(-c2cnc(N)cc2C(F)(F)F)nc(N2CCOCC2)n1` [Compound 8 *, 5-[4-[(3S)-3-methylmorpholin-4-yl]-6-morpholino-1,3,5-triazin-2-yl]-4-(trifluoromethyl)pyridin-2-amine], the IC50 in the experiment on pPKB S473 in A2058 cells came out at 196 nM; in experiment [2], 90 nM.

In the case of `C[C@H]1COCCN1c1nc(-c2cnc(N)cc2C(F)F)nc(N2C3CCC2COC3)n1` [Compound 10, 5-(4-(3-oxa-8-azabicyclo[3.2.1]octan-8-yl)-6-((S)-3-methylmorpholino)-1,3,5-triazin-2-yl)-4-(difluoromethyl)pyridin-2-amine], the IC50 in the experiment with pPKB S473 in A2058 cells (A2058, 1 h) was determined as 138 nM; in experiment [2] (A2058, 1 h), 93 nM.

Regarding `C[C@H]1COCCN1c1nc(-c2cnc(N)nc2C(F)F)nc(N2C3CCC2COC3)n1` [Compound 11, 5-(4-(3-oxa-8-azabicyclo[3.2.1]octan-8-yl)-6-((S)-3-methylmorpholino)-1,3,5-triazin-2-yl)-4-(difluoromethyl)pyrimidin-2-amine], the IC50 was found to be 61 nM in the experiment on pPKB S473 in A2058 cells (A2058, 1 h) and 96 nM in experiment [2] (A2058, 1 h).

On to `C[C@H]1COCCN1c1nc(-c2cnc(N)cc2C(F)F)nc(N2CCNCC2)n1` [Compound 14, (S)-4-(difluoromethyl)-5-(4-(3-methylmorpholino)-6-(piperazin-1-yl)-1,3,5-triazin-2-yl)pyridin-2-amine], for which the IC50 came to 350 nM in the experiment with pPKB S473 in A2058 cells (A2058, 1 h) and 883 nM in experiment [2] (A2058, 1 h).

For the compound `C[C@H]1COCCN1c1nc(-c2cnc(N)nc2C(F)F)nc(N2CCNCC2)n1` [Compound 15, (S)-4-(difluoromethyl)-5-(4-(3-methylmorpholino)-6-(piperazin-1-yl)-1,3,5-triazin-2-yl)pyrimidin-2-amine], the IC50 was determined as 49 nM in the experiment on pPKB S473 in A2058 cells (A2058, 1 h) and 286 nM in experiment [2] (A2058, 1 h).

Turning to `Nc1ncc(-c2nc(N3CCOCC3)cc(N3CCOCC3)n2)c(C(F)F)n1` [Compound 19, 4′-(difluoromethyl)-4,6-dimorpholino-[2,5′-bipyrimidin]-2′-amine], the IC50 in experiment [1] (setting [3]) is 158 nM.

In the case of `C[C@H]1COCCN1c1cc(-c2cnc(N)nc2C(F)F)nc(N2CCOCC2)n1` [Compound 28, (S)-4′-(difluoromethyl)-6-(3-methylmorpholino)-2-morpholino-[4,5′-bipyrimidin]-2′-amine], the IC50 in experiment [1] (setting [3]) worked out at 23 nM.

`Nc1cc(C(F)F)c(-c2nc(N3C4COCC3COC4)nc(N3C4COCC3COC4)n2)cn1` [Compound 37, 5-[4,6-bis(3,7-dioxa-9-azabicyclo[3.3.1]nonan-9-yl)-1,3,5-triazin-2-yl]-4-(difluoromethyl)pyridin-2-amine] showed an IC50 in experiment [1] of 49 nM.

In the case of `Nc1cc(C(F)F)c(-c2nc(N3C4CCC3COC4)nc(N3C4COCC3COC4)n2)cn1` [Compound 38, 4-(difluoromethyl)-5-[4-(3,7-dioxa-9-azabicyclo[3.3.1]nonan-9-yl)-6-(3-oxa-8-azabicyclo[3.2.1]octan-8-yl)-1,3,5-triazin-2-yl]pyridin-2-amine], the IC50 with pPKB S473 in A2058 cells (A2058, 1 h) turned out to be 219 nM; in experiment [2] (A2058, 1 h), 79 nM.

Consider `C[C@@H]1COCCN1c1nc(-c2cnc(N)cc2C(F)F)nc(N2C3COCC2C3)n1` [Compound 50, 4-(difluoromethyl)-5-[4-[(3R)-3-methylmorpholin-4-yl]-6-(3-oxa-6-azabicyclo[3.1.1]heptan-6-yl)-1,3,5-triazin-2-yl]pyridin-2-amine], for which the IC50 came to 1560 nM in the experiment with pPKB S473 in A2058 cells (A2058, 1 h) and 407 nM in experiment [2] (A2058, 1 h).

With `C[C@@H]1COCCN1c1nc(-c2cnc(N)cc2C(F)F)nc(N2CC3CC(C2)O3)n1` [Compound 51, 4-(difluoromethyl)-5-[4-[(3R)-3-methylmorpholin-4-yl]-6-(6-oxa-3-azabicyclo[3.1.1]heptan-3-yl)-1,3,5-triazin-2-yl]pyridin-2-amine], the IC50 came to 875 nM in the experiment with pPKB S473 in A2058 cells (A2058, 1 h) and 352 nM in experiment [2] (A2058, 1 h).

Consider `C[C@@H]1COCCN1c1nc(-c2cnc(N)cc2C(F)F)nc(N2C[C@H]3C[C@@H]2CO3)n1` [Compound 52, 4-(difluoromethyl)-5-[4-[(3R)-3-methylmorpholin-4-yl]-6-[(1R,4R)-2-oxa-5-azabicyclo[2.2.1]heptan-5-yl]-1,3,5-triazin-2-yl]pyridin-2-amine], for which the IC50 was found to be 1050 nM with pPKB S473 in A2058 cells (A2058, 1 h) and 332 nM in experiment [2] (A2058, 1 h).

For the compound `C[C@@H]1COCCN1c1nc(-c2cnc(N)cc2C(F)F)nc(N2C[C@@H]3C[C@H]2CO3)n1` [Compound 53, 4-(difluoromethyl)-5-[4-[(3R)-3-methylmorpholin-4-yl]-6-[(1S,4S)-2-oxa-5-azabicyclo[2.2.1]heptan-5-yl]-1,3,5-triazin-2-yl]pyridin-2-amine], the IC50 was 1320 nM with pPKB S473 in A2058 cells (A2058, 1 h) and 612 nM in experiment [2] (A2058, 1 h).

As for `CC[C@@H]1COCCN1c1nc(-c2cnc(N)cc2C(F)F)nc(N2CCOC[C@H]2CC)n1` [Compound 54, 5-[4,6-bis[(3R)-3-ethylmorpholin-4-yl]-1,3,5-triazin-2-yl]-4-(difluoromethyl)pyridin-2-amine], the concentration for half-maximal inhibition (IC50) in the experiment with pPKB S473 in A2058 cells (A2058, 1 h) was found to be 354 nM; in experiment [2] (A2058, 1 h), 209 nM.

As for `Nc1cc(C(F)F)c(-c2nc(N3CCOCC34CCC4)nc(N3CCOCC34CCC4)n2)cn1` [Compound 55, 5-[4,6-bis(8-oxa-5-azaspiro[3.5]nonan-5-yl)-1,3,5-triazin-2-yl]-4-(difluoromethyl)pyridin-2-amine], the IC50 in the experiment on pPKB S473 in A2058 cells (A2058, 1 h) worked out at 942 nM; in experiment [2] (A2058, 1 h), 526 nM.

Take `CC(C)[C@@H]1COCCN1c1nc(-c2cnc(N)cc2C(F)F)nc(N2CCOC[C@H]2C(C)C)n1` [Compound 56, 5-[4,6-bis[(3R)-3-isopropylmorpholin-4-yl]-1,3,5-triazin-2-yl]-4-(difluoromethyl)pyridin-2-amine]: the IC50 in the experiment on pPKB S473 in A2058 cells (A2058, 1 h) is over 10000 nM; in experiment [2] (A2058, 1 h), over 10000 nM.

With `COC[C@@H]1COCCN1c1nc(-c2cnc(N)cc2C(F)F)nc(N2CCOCC2(C)C)n1` [Compound 67, 4-(difluoromethyl)-5-[4-(3,3-dimethylmorpholin-4-yl)-6-[(3R)-3-(methoxymethyl)morpholin-4-yl]-1,3,5-triazin-2-yl]pyridin-2-amine], the IC50 in the experiment on pPKB S473 in A2058 cells (A2058, 1 h) was determined as 787 nM; in experiment [2] (A2058, 1 h) it was 395 nM.

On to `CC1(C)COCCN1c1nc(-c2cnc(N)cc2C(F)F)nc(N2CCOC[C@H]2CO)n1` [Compound 68, [(3R)-4-[4-[6-amino-4-(difluoromethyl)-3-pyridyl]-6-(3,3-dimethylmorpholin-4-yl)-1,3,5-triazin-2-yl]morpholin-3-yl]methanol], for which the IC50 with pPKB S473 in A2058 cells (A2058, 1 h) was 682 nM; in experiment [2] (A2058, 1 h), 415 nM.

Turning to `CC1(C)COCCN1c1nc(-c2cnc(N)cc2C(F)F)nc(N2CCN(C3CC3)CC2)n1` [Compound 70, 5-[4-(4-cyclopropylpiperazin-1-yl)-6-(3,3-dimethylmorpholin-4-yl)-1,3,5-triazin-2-yl]-4-(difluoromethyl)pyridin-2-amine], the IC50 worked out at 914 nM in the experiment with pPKB S473 in A2058 cells (A2058, 1 h) and 906 nM in experiment [2] (A2058, 1 h).

`COCCN1CCN(c2nc(-c3cnc(N)cc3C(F)F)nc(N3CCOCC3(C)C)n2)CC1` [Compound 71, 4-(difluoromethyl)-5-[4-(3,3-dimethylmorpholin-4-yl)-6-[4-(2-methoxyethyl)piperazin-1-yl]-1,3,5-triazin-2-yl]pyridin-2-amine]: the IC50 was 2340 nM with pPKB S473 in A2058 cells (A2058, 1 h) and 3140 nM in experiment [2] (A2058, 1 h).

Turning to `C[C@@H]1COCCN1c1nc(-c2cnc(N)cc2C(F)F)nc(N2CCOC[C@H]2CO)n1` [Compound 77, [(3R)-4-[4-[6-amino-4-(difluoromethyl)-3-pyridyl]-6-[(3R)-3-methylmorpholin-4-yl]-1,3,5-triazin-2-yl]morpholin-3-yl]methanol], half-maximal inhibition in the experiment on pPKB S473 in A2058 cells (A2058, 1 h) (IC50) was put at 476 nM.

For the compound `Nc1cc(C(F)F)c(-c2nc(N3CCOCC3)nc(N3C4CCCC3COC4)n2)cn1` [Compound 80, 4-(difluoromethyl)-5-[4-morpholino-6-(3-oxa-9-azabicyclo[3.3.1]nonan-9-yl)-1,3,5-triazin-2-yl]pyridin-2-amine], the IC50 turned out to be 94 nM in the experiment on pPKB S473 in A2058 cells (A2058, 1 h) and 117 nM in experiment [2] (A2058, 1 h).

`Nc1cc(C(F)F)c(-c2nc(N3CCOCC3)nc(N3C4COCC3COC4)n2)cn1` [Compound 84, 4-(difluoromethyl)-5-[4-(3,7-dioxa-9-azabicyclo[3.3.1]nonan-9-yl)-6-morpholino-1,3,5-triazin-2-yl]pyridin-2-amine]: the IC50 with pPKB S473 in A2058 cells (A2058, 1 h) was found to be 116 nM; in experiment [2] (A2058, 1 h), 146 nM.

For the compound `CC[C@H]1COCCN1c1nc(-c2cnc(N)cc2C(F)F)nc(N2CCOC[C@H]2C)n1` [Compound 85, 4-(difluoromethyl)-5-[4-[(3S)-3-ethylmorpholin-4-yl]-6-[(3R)-3-methylmorpholin-4-yl]-1,3,5-triazin-2-yl]pyridin-2-amine], the IC50 with pPKB S473 in A2058 cells (A2058, 1 h) was 249 nM; in experiment [2] (A2058, 1 h), 241 nM.

With `CC[C@@H]1COCCN1c1nc(-c2cnc(N)cc2C(F)F)nc(N2CCOC[C@H]2C)n1` [Compound 86, 4-(difluoromethyl)-5-[4-[(3R)-3-ethylmorpholin-4-yl]-6-[(3R)-3-methylmorpholin-4-yl]-1,3,5-triazin-2-yl]pyridin-2-amine], the IC50 with pPKB S473 in A2058 cells (A2058, 1 h) was 231 nM; in experiment [2] (A2058, 1 h), 236 nM.

With `Nc1cc(C(F)(F)F)c(-c2cc(N3CCOCC3)nc(N3CCOCC3)n2)cn1` [reference compound], the IC50 is 263 nM in the experiment on pPKB S473 in A2058 cells (A2058, 1 h) and 277 nM in experiment [2] (A2058, 1 h).
